This note sets out measurements from patent US5412098A, “Quinolone derivative or salt thereof and antibacterial containing the same” (Wakunaga Seiyaku Kabushiki Kaisha, priority 1991, dated 1995).

Series [1] deals with E. Coli NIH JC-2 (IFO 12734). Kind of series: Minimum inhibitory concentration, standard method of Japan Society of Chemotherapy, E. Coli NIH JC-2. Format: cell-based. The conditions noted are these: Escherichia coli, IFO12734. The protocol: (§1) Antibacterial activity, absorption and excretion of the compounds indicated in Examples were tested as follows.
(§2) The minimum inhibitory concentration (MIC: microgram/ml) is measured by the standard method of Japan Society of Chemotherapy, (Chemotherapy, Volume 29, No.1, pp.76-79, 1981). The results are shown in Table 52 in which compound numbers are the same as those indicated in Examples.

Series [2] deals with S. aureus 209P (IFO 12732). Put plainly: Minimum inhibitory concentration, standard method of Japan Society of Chemotherapy, S. aureus 209P. Format: cell-based. As to conditions: Staphylococcus aureus. As for the experimental part:
as §1, §2

A further series has as its system P. aeruginosa (IFO 3445). Kind of series: Minimum inhibitory concentration, standard method of Japan Society of Chemotherapy, P. aeruginosa. As to conditions: Pseudomonas aeruginosa, IFO3445. It counts as cell-based. As for the experimental part:
as §1, §2

A short description of series [3]: Recovery in urine after oral administration (disk method, Bacillus subtilis ATCC 6633). It counts as in vivo, male JCL-SD rats. As to conditions: rat, 20 mg/kg, rats, 20 mg/10 ml/kg in 0.5% methylcellulose, fasted overnight, read-out: Excretion Rate, In Urine. The protocol: (§3) The absorption and excretion after oral administration of the compounds of the present invention were tested by measuring the recovery in urine and bile as follows.
To a group of three male JCL-SD rats (6 weeks old) fasted overnight, a subject compound was orally administered as prepared to be 20 mg/10 ml/kg with 0.5% of methylcellulose solution. The sampling was carried out by collecting urine in 0 to 6 hours and 6 to 24 hours. The concentration of the subject compound in the urine was examined by a disk method by using Bacillus subtilis ATCC 6633 as a testing bacillus to obtain an excretion rate in urine for 24 hours.

Series [4] can be described thus: Recovery in bile after oral administration (disk method, Bacillus subtilis ATCC 6633). Format: in vivo. As to conditions: rat, 20 mg/kg, rats, prepared as in urine test (20 mg/10 ml/kg), read-out: Excretion Rate, In Bile. As for the experimental part:
as §3
A subject compound was prepared in the same manner as the recovery test in urine and was orally administered to the rats. The bile was collected by using a polyethylene tube inserted into the choledochus over 24 hours. The concentration of the subject compound in the bile sample was examined in the same manner as the recovery in urine to obtain an excretion rate in bile for 24 hours.

Values after ≈ are worked out from the molar mass of the structure shown.

By MIC is commonly meant the lowest concentration found to suppress growth. Low values mean a more susceptible organism, high ones a less susceptible organism. With `C[C@@H]1CN(c2nc3c(cc2F)c(=O)c(C(=O)O)cn3-c2cnsn2)C[C@@H]1N` (single isomer, unassigned) [Compound 19], the minimal inhibitory concentration (MIC) in series [1] was under 0.013 µg/mL; in series [2], 0.1 µg/mL (≈ 0.256 µM); against P. aeruginosa (IFO 3445) it was 0.39 µg/mL (≈ 0.999 µM). The dose excreted at 24 h is 80.6% in series [3] and 4.4% in series [4].
Regarding `N[C@H]1CCN(c2c(F)cc3c(=O)c(C(=O)O)cn(Cc4cnsn4)c3c2F)C1` [Compound 126], the results for the MIC (in series [1]; in series [2]; in the series on P. aeruginosa (IFO 3445)) were 3.13 µg/mL (≈ 7.68 µM), 0.39 µg/mL (≈ 0.957 µM) and 3.13 µg/mL (≈ 7.68 µM), respectively.
Consider `Cl.N[C@H]1CCN(c2nc3c(cc2F)c(=O)c(C(=O)O)cn3-c2cnsn2)C1` [Compound 18, 7-(3-(S)-Aminopyrrolidin-1-yl)-6-fluoro-1-(1,2,5-thiadiazol-3-yl)-1,4-dihydro-4-oxo-1,8-naphthyridine-3-carboxylic acid hydrochloride], for which the results for the MIC (in series [1]; in series [2]; against P. aeruginosa (IFO 3445)) were under 0.013 µg/mL, 0.2 µg/mL and 0.1 µg/mL, respectively. Besides, the dose excreted at 24 h in series [3] turned out to be 20%; in series [4], 2%.
Regarding `Cc1c(F)c(N2CC[C@H](N)C2)cc2c1c(=O)c(C(=O)O)cn2-c1cnsn1` [Compound 162], the MIC is 0.013 µg/mL (≈ 0.0334 µM) in series [1], 0.1 µg/mL (≈ 0.257 µM) in series [2] and 0.2 µg/mL (≈ 0.514 µM) in the series with P. aeruginosa (IFO 3445).
Turning to `N[C@H]1CCN(c2nc3c(cc2F)c(=O)c(C(=O)O)cn3-c2csnn2)C1` [Compound 58], the minimal inhibitory concentration (MIC) in series [1] came out at 0.05 µg/mL (≈ 0.133 µM); in series [2], 1.56 µg/mL (≈ 4.14 µM); against P. aeruginosa (IFO 3445), 0.39 µg/mL (≈ 1.04 µM).
On to `Cc1nsnc1-n1cc(C(=O)O)c(=O)c2cc(F)c(N3CC[C@H](N)C3)nc21.Cl` [Compound 187, 7-(3-(S)-Aminopyrrolidin-1-yl)-6-fluoro-1-(4-methyl-1,2,5-thiadiazol-3-yl)-1,4-dihydro-4-oxo-1,8-naphthyridine-3-carboxylic acid hydrochloride], for which the minimal inhibitory concentration (MIC) in series [1] is 0.05 µg/mL; in series [2] it was 0.2 µg/mL; against P. aeruginosa (IFO 3445), 0.39 µg/mL.
Consider `Cc1nonc1-n1cc(C(=O)O)c(=O)c2cc(F)c(N3CC[C@H](N)C3)nc21` [Compound 81], for which the MIC turned out to be 0.05 µg/mL (≈ 0.134 µM) in series [1], 0.1 µg/mL (≈ 0.267 µM) in series [2] and 0.2 µg/mL (≈ 0.534 µM) against P. aeruginosa (IFO 3445).
